These results are taken from ChEMBL document CHEMBL4371079, “Improved synthesis, resolution, absolute configuration determination and biological evaluation of HLM006474 enantiomers” (Bioorg Med Chem Lett, 2019).

Calls of active or inactive are those of the source. The rule behind the calls is not given here.

Chain of Transcription factor E2F1 (Homo sapiens) (Q01094 whole entry): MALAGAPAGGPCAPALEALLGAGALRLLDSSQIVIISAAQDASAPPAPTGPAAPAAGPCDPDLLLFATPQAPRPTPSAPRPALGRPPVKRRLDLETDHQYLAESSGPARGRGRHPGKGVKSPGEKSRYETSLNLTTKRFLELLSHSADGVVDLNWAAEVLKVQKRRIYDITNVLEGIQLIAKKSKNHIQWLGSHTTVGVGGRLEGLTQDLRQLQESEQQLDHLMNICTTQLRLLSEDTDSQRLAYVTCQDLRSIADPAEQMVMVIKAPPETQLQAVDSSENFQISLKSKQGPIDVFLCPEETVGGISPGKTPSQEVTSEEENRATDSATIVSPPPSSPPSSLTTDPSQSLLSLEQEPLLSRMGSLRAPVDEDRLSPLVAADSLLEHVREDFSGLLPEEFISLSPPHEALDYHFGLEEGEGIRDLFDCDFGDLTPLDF

The test concerns the target Transcription factor E2F1 (Homo sapiens) (UniProt Q01094). Briefly: Inhibition of E2F1 transcriptional activity (unknown origin) expressed in HEK293 cells at 10 uM measured after 48 hrs by luciferase reporter gene assay. Type of test: cell-based. (Reporter assays use an easily measured gene product as a stand-in for the process of interest.)
Turning to `CCOc1ccc(C(Nc2ccccn2)c2ccc3ccc(C)nc3c2O)cc1C` (racemic), the inhibition result is “Active”. The value for `CCOc1ccc([C@@H](Nc2ccccn2)c2ccc3ccc(C)nc3c2O)cc1C` was “Active”; that for `CCOc1ccc([C@H](Nc2ccccn2)c2ccc3ccc(C)nc3c2O)cc1C` was “inactive”.
